Test results as given in PMC4546118 (SpringerPlus, 2015).

Tests used:
[1] = Pharmacokinetics of VCM after intraduodenal administration to control and PN rats; conditions: for F (bioavailability): 20 mg/kg intraduodenal vs 5 mg/kg intravenous, dose-normalised AUC ratio; for ka (absorption rate constant) / CLD2/F / Cmax (maximum concentration) / Vc/F / Vp/F / t1/2α (distribution half-life) / t1/2β (elimination half-life) / CLtot/F: 20 mg/kg intraduodenal, two-compartment model with first-order absorption, plasma LC/MS/MS; for ka (absorption rate constant): pylorus ligated
Procedure: (§1) Briefly, 3 days before the start of PN administration, cardiac catheterization was performed via the right jugular vein with a polyurethane catheter (0.6-mm ID, 0.9-mm OD, Primetech Co., Tokyo, Japan) in rats anesthetized with sodium pentobarbital, and given ampicillin for prevention of infection and local bupivacaine for pain relief. The cannulated rats were housed individually in cages with free access to food and water, and received saline at a rate of 0.1 mL/h for 3 days via the catheter with a syringe pump (ISIS Co., Ltd., Osaka, Japan), and daily ampicillin (2 mg/kg, 2-min infusion) for recovery from surgery. For PN administration, infusion of PN solution was started at a rate of 1.25 mL/h for 2 days under fasting and water-deprived conditions; PN solution consisting of glucose, amino acids, electrolytes, and vitamins (approximately 0.97 kcal/mL) was prepared by mixing PNTWIN No. 3 with VITAJECT (Fukushima et al. [2015]). Subsequently, PN administration was performed at a rate of 2.5 mL/h (viz., 60 mL/day, 58 kcal/day) for 7 days; likewise, the sham operated rats (control rats) underwent the same regimen with saline and allowed free access to food throughout the treatment.
(§2) Blood samples were taken 5, 15, 30, 45, 60, 90, 120, 180, 240, and 360 min after administration, and were centrifuged at 12,000 rpm for 15 min to collect the plasma fraction. In the intraduodenal administration study, the abdominal cavity was opened in anesthetized rats and the stomach was exposed. […] After administration, the incision was closed with a tissue adhesive and the pylorus was ligated. Blood samples were taken 5, 15, 30, 60, 90, 120, 180, 240, 300, and 360 min after administration, and plasma samples were collected by centrifugation. The collected plasma samples in both studies were immediately frozen at −80 °C until analysis.
(§3) After vortexing and centrifugation at 12,000 rpm for 15 min, the supernatant was diluted in 340 µL of distilled water and was passed through a filter, and 10 µL of the filtrate was injected into a Quattro Ultima LC/MS/MS system with a 2690 Separation Module (Waters Co, MA, UK). […] Mass spectrometry was conducted with electrospray ionization in positive mode (ESI+) under the following conditions: source temperature, 130 °C; cone voltage, 35 V; capillary voltage, 4.0 kV.
(§4) All pharmacokinetic analyses were performed using WinNonlin® Version 6.3 (Pharsight, Mountain View, CA). The structural parameters, including the absorption rate constant (ka), distribution volume of the central compartment (Vc), distribution volume of the peripheral compartment (Vp), total body clearance (CLtot), and distribution clearance (CLD2), and the secondary parameters including the maximum concentration (Cmax), time to maximum concentration (Tmax), distribution half-life (t1/2α), elimination half-life (t1/2β), and the area under the plasma concentration–time curve (AUC) were calculated. The bioavailability (F) was calculated using the following equation: F=AUCintraduodenal/Doseintraduodenal/AUCintravenous/Doseintravenous, where Dose represents the administered dosage.
(§5) All values are represented by the mean ± standard error (SE). Statistical differences of the means were assumed to be significant when p < 0.05 by the Mann–Whitney U test.

[2] = Pharmacokinetics of VCM after intravenous administration to control and PN rats; conditions: 5 mg/kg intravenous bolus, two-compartment model, plasma LC/MS/MS
Procedure: as §1, §2, §3, §4, §5

[3] = design: method as in Kusama et al. [1998]; conditions: binding to plasma proteins; ref Kusama et al. [1998]; cited from earlier work
[4] = PN rats (parenteral nutrition for 9 days), mean of n = 4, p<0.05 vs control
[5] = PN rats (parenteral nutrition for 9 days), mean of n = 4

CN[C@H](CC(C)C)C(=O)N[C@H]1C(=O)N[C@@H](CC(N)=O)C(=O)N[C@H]2C(=O)N[C@H]3C(=O)N[C@H](C(=O)N[C@H](C(=O)O)c4cc(O)cc(O)c4-c4cc3ccc4O)[C@H](O)c3ccc(c(Cl)c3)Oc3cc2cc(c3O[C@@H]2O[C@H](CO)[C@@H](O)[C@H](O)[C@H]2O[C@H]2C[C@](C)(N)[C@H](O)[C@H](C)O2)Oc2ccc(cc2Cl)[C@H]1O [VCM, vancomycin]
F (bioavailability) [1, 4]: 1.295% | ka (absorption rate constant) [1, 5]: 0.256 min⁻¹ | CLD2/F [1, 5]: 1360 mL/min/kg | Cmax (maximum concentration) [1, 5]: 267 ng/mL | Vc/F [1, 5]: 89 L/kg | Vp/F [1, 5]: 29 L/kg | t1/2α (distribution half-life) [1, 5]: 26.2 min | t1/2β (elimination half-life) [1, 5]: 150 min | CLtot/F [1, 4]: 590 mL/min/kg | ka (absorption rate constant) ([1]; control rats (sham, saline), mean of n = 4): 0.214 min⁻¹ | F (bioavailability) ([1]; control rats, mean of n = 4): 0.504% | CLD2/F ([1]; control rats, mean of n = 4): 2050 mL/min/kg | CLtot/F ([1]; control rats, mean of n = 4): 1340 mL/min/kg | Cmax (maximum concentration) ([1]; control rats, mean of n = 4): 111 ng/mL | Vc/F ([1]; control rats, mean of n = 4): 158 L/kg | Vp/F ([1]; control rats, mean of n = 4): 107 L/kg | t1/2α (distribution half-life) ([1]; control rats, mean of n = 4): 31.4 min | t1/2β (elimination half-life) ([1]; control rats, mean of n = 4): 174 min | AUC (area under the plasma concentration vs time curve) [2, 5]: 807 µg·min/mL | CLD2 (distribution clearance) [2, 5]: 4.23 mL/min/kg | CLtot (total body clearance) [2, 5]: 6.22 mL/min/kg | Vc (distribution volume of the central compartment) [2, 5]: 0.234 L/kg | Vp (distribution volume of the peripheral compartment) [2, 5]: 0.223 L/kg | t1/2α (distribution half-life) [2, 5]: 13.72 min | Vc (distribution volume of the central compartment) ([2]; control rats (sham, saline), male Wistar, mean of n = 4 (SE in own column)): 0.214 L/kg | AUC (area under the plasma concentration vs time curve) ([2]; control rats, mean of n = 4): 788 µg·min/mL | CLD2 (distribution clearance) ([2]; control rats, mean of n = 4): 6.26 mL/min/kg | CLtot (total body clearance) ([2]; control rats, mean of n = 4): 6.44 mL/min/kg | Vp (distribution volume of the peripheral compartment) ([2]; control rats, mean of n = 4): 0.283 L/kg | t1/2α (distribution half-life) ([2]; control rats, mean of n = 4): 9.72 min | protein binding rate [3]: approximately 47%
